US10696692B2, “Amido-benzyl sulfone and sulfoxide derivates” (Forma TM, LLC, priority 2012, dated 2020)
Where two headings read alike, the source gives them in different places.

Columns and labels:
[1] = test system: A2780 cells; assay: Assay 2: In-Vitro Cell Proliferation Assay (A2780 cells, SRB readout, 72 hours); type: cell-based; settings: A2780 cells, 72 hours, SRB, read-out: Cell Proliferation (IC50);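 note: viable cells counted via sulforhodamine B staining, absorbance at 570 nm, after 72 h exposure at 37 °C, DMSO 0.1% as control, media-only background subtracted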
[2] = molecular target: NAMPT (Homo sapiens (Human), UniProt P43490); assay: Assay 1: Biochemical Inhibition Assay (NAMPT enzymatic reaction, NMN quantified by mass spectrometry); settings: read-out: Biochemical (IC50);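 note: recombinant His-tagged human NAMPT preincubated with compound 15 min, then reacted 30 min at rt with 1 µM NAM, 100 µM PRPP, 2.5 mM ATP, NMN product read by RapidFire MS, normalized to L-Cystathionine internal standard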
NAMPT, sequence (P43490 whole entry): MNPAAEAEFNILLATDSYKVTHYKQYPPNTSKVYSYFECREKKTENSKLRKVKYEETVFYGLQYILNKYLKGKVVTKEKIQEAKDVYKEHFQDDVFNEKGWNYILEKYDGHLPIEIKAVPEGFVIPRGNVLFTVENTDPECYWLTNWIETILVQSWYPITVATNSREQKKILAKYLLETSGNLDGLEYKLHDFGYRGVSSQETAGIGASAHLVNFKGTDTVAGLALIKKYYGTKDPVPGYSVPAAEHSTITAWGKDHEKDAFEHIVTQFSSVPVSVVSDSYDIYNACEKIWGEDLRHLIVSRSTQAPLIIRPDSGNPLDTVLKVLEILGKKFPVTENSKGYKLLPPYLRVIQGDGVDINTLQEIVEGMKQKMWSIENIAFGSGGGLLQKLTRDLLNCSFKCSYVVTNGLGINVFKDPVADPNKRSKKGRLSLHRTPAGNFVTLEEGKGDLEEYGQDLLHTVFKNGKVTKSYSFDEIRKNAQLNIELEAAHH

SMILES | IC50 ([1]; Homo sapiens, A2780, 72 h) [nM] | IC50 [2] [nM] | IC50 [1] [nM]
O=C(NCc1ccc(S(=O)(=O)C2CCN(C3CCOCC3)CC2)cc1)c1cnc2nccn2c1 [Example 224, N-[[4-[(1-tetrahydropyran-4-yl-4-piperidyl)sulfonyl]phenyl]methyl]imidazo[1,2-a]pyrimidine-6-carboxamide] | 47.9 | 3.98 | 
CC(=O)N1CCC(S(=O)(=O)c2ccc(CNC(=O)c3cnc4[nH]ncc4c3)cc2)CC1 [Example 228, N-[[4-(1-Acetylpiperidine-4-sulfonyl)phenyl]methyl]-1H-pyrazolo[3,4-b]pyridine-5-carboxamide] | 151 | 207 | 
CC(=O)N1CCC(S(=O)(=O)c2ccc(CNC(=O)c3cnc4nccn4c3)cc2)CC1 [Example 229, N-[[4-[(1-acetyl-4-piperidyl)sulfonyl]phenyl]methyl]imidazo[1,2-a]pyrimidine-6-carboxamide] | 527 | 5.12 | 
CC(C)(C)OC(=O)N1CCC2(CC1)CCN(S(=O)(=O)c1ccc(CNC(=O)c3ccc4nccn4c3)cc1)C2 [Example 235, tert-butyl 2-[4-[(imidazo[1,2-a]pyridine-6-carbonylamino)methyl]phenyl] sulfonyl-2,8-diazaspiro[4.5]decane-8-carboxylate] | 36.3 | 16.4 | 
CC(C)(C)OC(=O)N1CCC2(CCCN2S(=O)(=O)c2ccc(CNC(=O)c3ccc4nccn4c3)cc2)C1 (stereo not drawn) [Example 237, tert-butyl 1-[4-[(imidazo[1,2-a]pyridine-6-carbonylamino)methyl]phenyl] sulfonyl-1,7-diazaspiro[4.4]nonane-7-carboxylate] | 38.8 | 109 | 
CC(C)(C)OC(=O)N1CCCC2(C1)CN(S(=O)(=O)c1ccc(CNC(=O)c3ccc4nccn4c3)cc1)C2 [Example 238, tert-butyl 2-[4-[(imidazo[1,2-a]pyridine-6-carbonylamino)methyl]phenyl] sulfonyl-2,8-diazaspiro[3.5]nonane-8-carboxylate] | 1.83 | 11.8 | 
CC(C)(C)OC(=O)N1CCC2(CCN(S(=O)(=O)c3ccc(CNC(=O)c4ccc5nccn5c4)cc3)C2)C1 (stereo not drawn) [Example 241, tert-butyl 2-[4-[(imidazo[1,2-a]pyridine-6-carbonylamino)methyl]phenyl] sulfonyl-2,7-diazaspiro[4.4]nonane-7-carboxylate] | 4.14 | 14.4 | 
CC(C)(C)OC(=O)N1CCCCC12CCN(S(=O)(=O)c1ccc(CNC(=O)c3ccc4nccn4c3)cc1)C2 (stereo not drawn) [Example 243, tert-butyl 2-[4-[(imidazo[1,2-a]pyridine-6-carbonylamino)methyl]phenyl] sulfonyl-2,6-diazaspiro[4.5]decane-6-carboxylate] | 43.3 | 14.9 | 
CN1CCN(C(=O)C2CN(S(=O)(=O)c3ccc(CNC(=O)c4ccc5nccn5c4)cc3)C2)CC1 [Example 246, N-[[4-[3-(4-methylpiperazine-1-carbonyl)azetidin-1-yl]sulfonylphenyl]methyl] imidazo[1,2-a]pyridine-6-carboxamide] | 27.3 | 7.03 | 
O=C(NCc1ccc(S(=O)(=O)C2CCN(C3COC3)CC2)cc1)c1cnc2nccn2c1 [Example 251, N-[[4-[[1-(oxetan-3-yl)-4-piperidyl]sulfonyl]phenyl]methyl]imidazo[1,2-a] pyrimidine-6-carboxamide] |  | 4.13 | 121
O=C(NCc1ccc(S(=O)(=O)C2CCN(C3COC3)CC2)cc1)c1cc2ccncc2s1 [Example 252, N-[[4-[[1-(oxetan-3-yl)-4-piperidyl]sulfonyl]phenyl]methyl]thieno[2,3-c]pyridine-2-carboxamide] |  | 4.27 | 1.48
O=C(NCc1ccc(S(=O)(=O)N2CCC3(CCCN3)C2)cc1)c1ccc2nccn2c1 (stereo not drawn) [Example 255, N-[[4-(1,7-diazaspiro[4.4]nonan-7-sulfonyl)phenyl]methyl] imidazo[1,2-a]pyridine-6-carboxamide] | 36.2 | 57 | 
O=C(NCc1ccc(S(=O)(=O)N2CCC3(CCNCC3)C2)cc1)c1ccc2nccn2c1 [Example 256, N-[[4-(2,8-diazaspiro[4.5]decan-2-ylsulfonyl)phenyl]methyl] imidazo[1,2-a]pyridine-6-carboxamide] | 66.9 | 53.7 | 
O=C(NCc1ccc(S(=O)(=O)N2CCC3(CCCN3)C2)cc1)c1ccc2nccn2c1 (stereo not drawn) [Example 257, N-[[4-(1,7-diazaspiro[4.4]nonan-7-ylsulfonyl)phenyl]methyl] imidazo[1,2-a]pyridine-6-carboxamide] |  | 46.8 | 26.5
O=C(NCc1ccc(S(=O)(=O)N2CCC3(CCNC3)C2)cc1)c1ccc2nccn2c1 (stereo not drawn) [Example 262, N-[[4-(2,7-diazaspiro[4.4]nonan-2-ylsulfonyl)phenyl]methyl] imidazo[1,2-a]pyridine-6-carboxamide] | 106 | 64.9 | 
O=C(NCc1ccc(S(=O)(=O)N2CC3(CCOCC3)C2)cc1)c1cc2ccncc2o1 [Example 263, N-[[4-(7-oxa-2-azaspiro[3.5]nonan-2-ylsulfonyl)phenyl]methyl]furo [2,3-c]pyridine-2-carboxamide] | 23.4 | 18.2 | 
O=C(NCc1ccc(S(=O)(=O)C2CCCOC2)cc1)c1cc2cnccc2[nH]1 (stereo not drawn) [Example 266, N-[(4-tetrahydropyran-3-ylsulfonylphenyl)methyl]-1H-pyrrolo[3,2-c]pyridine-2-carboxamide] | 18.5 | 33.1 | 
O=C(NCc1ccc(S(=O)(=O)C2CCCOC2)cc1)c1cnc2[nH]ncc2c1 (stereo not drawn) [Example 267, N-[(4-tetrahydropyran-3-ylsulfonylphenyl)methyl]-1H-pyrazolo[3,4-b]pyridine-5-carboxamide] | 176 | 219 | 

More lines, now with the values ahead:

IC50 ([1]; Homo sapiens, A2780, 72 h) [nM] | IC50 [2] [nM] | IC50 [1] [nM] | SMILES
320 | 118 |  | O=C(NCc1ccc(S(=O)(=O)[C@@H]2CCOC2)cc1)c1cc2cnccc2[nH]1 [Example 225, N-[[4-[(3R)-tetrahydrofuran-3-yl]sulfonylphenyl]methyl]-1H-pyrrolo[3,2-c]pyridine-2-carboxamide]
457 | 8.88 |  | O=C(NCc1ccc(S(=O)(=O)[C@@H]2CCOC2)cc1)c1cnc2nccn2c1 [Example 226, N-[[4-[(3R)-tetrahydrofuran-3-yl)sulfonylphenyl]methyl] imidazo[1,2-a]pyrimidine-6-carboxamide]
98.4 | 51.3 |  | O=C(NCc1ccc(S(=O)(=O)[C@@H]2CCOC2)cc1)c1ccc2nccn2c1 [Example 227, N-[[4-((3R)-tetrahydrofuran-3-yl]sulfonylphenyl]methyl] imidazo[1,2-a]pyridine-6-carboxamide]
243 | 73.8 |  | O=C(NCc1ccc(S(=O)(=O)[C@H]2CCOC2)cc1)c1cc2ccncc2o1 [Example 230, N-[[4-[(3S)-tetrahydrofuran-3-yl]sulfonylphenyl]methyl]furo [2,3-c]pyridine-2-carboxamide]
977 | 315 |  | O=C(NCc1ccc(S(=O)(=O)[C@H]2CCOC2)cc1)c1cnc2[nH]ncc2c1 [Example 231, N-[[4-[(3S)-tetrahydrofuran-3-yl]sulfonylphenyl]methyl]-1H-pyrazolo[3,4-b]pyridine-5-carboxamide]
445 | 175 |  | O=C(NCc1ccc(S(=O)(=O)[C@@H]2CCOC2)cc1)c1cc2ccncc2o1 [Example 232, N-[[4-[(3R)-tetrahydrofuran-3-yl]sulfonylphenyl]methyl]furo [2,3-c]pyridine-2-carboxamide]
1590 | 227 |  | O=C(NCc1ccc(S(=O)(=O)[C@@H]2CCOC2)cc1)c1cnc2[nH]ncc2c1 [Example 233, N-[[4-((3R)-tetrahydrofuran-3-yl]sulfonylphenyl]methyl]-1H-pyrazolo[3,4-b]pyridine-5-carboxamide]
130 | 90.6 |  | O=C(NCc1ccc(S(=O)(=O)C2CCNCC2)cc1)c1ccc2nccn2c1 [Example 234, N-[[4-(4-piperidylsulfonyl)phenyl]methyl]imidazo[1,2-a]pyridine-6-carboxamide]
35.6 | 33.3 |  | O=C(NCc1ccc(S(=O)(=O)N2CC(F)(F)C2)cc1)c1ccc2nccn2c1 [Example 239, N-[[4-(3,3-difluoroazetidin-1-yl)sulfonylphenyl]methyl] imidazo[1,2-a]pyridine-6-carboxamide]
140 | 41 |  | O=C(NCc1ccc(S(=O)(=O)N2CCC2)cc1)c1ccc2nccn2c1 [Example 240, N-[[4-(azetidin-1-ylsulfonyl)phenyl]methyl] imidazo[1,2-a]pyridine-6-carboxamide]
14.4 | 14.1 |  | CN(C)C(=O)C1CN(S(=O)(=O)c2ccc(CNC(=O)c3ccc4nccn4c3)cc2)C1 [Example 244, N-[[4-[3-(dimethylcarbamoyl)azetidin-1-yl]sulfonylphenyl]methyl] imidazo[1,2-a]pyridine-6-carboxamide]
274 | 52.3 |  | O=C(NCc1ccc(S(=O)(=O)N2CC(O)C2)cc1)c1ccc2nccn2c1 [Example 245, N-[[4-(3-hydroxyazetidin-1-yl)sulfonylphenyl]methyl] imidazo[1,2-a]pyridine-6-carboxamide]
 | 19.4 | 5.58 | O=C(NCc1ccc(S(=O)(=O)C2CCN(C3COC3)CC2)cc1)c1ccc2nccn2c1 [Example 248, N-[[4-[[1-(oxetan-3-yl)-4-piperidyl]sulfonyl]phenyl]methyl]imidazo[1,2-a] pyridine-6-carboxamide]
31.3 | 27.4 |  | O=C(NCc1ccc(S(=O)(=O)N2CC3(CCCNC3)C2)cc1)c1ccc2nccn2c1 [Example 253, N-[[4-(2,8-diazaspiro[3,5]nonan-2-ylsulfonyl)phenyl]methyl] imidazo[1,2-a]pyridine-6-carboxamide]
70 | 37.8 |  | CC(=O)N1CC2(C1)CN(S(=O)(=O)c1ccc(CNC(=O)c3ccc4nccn4c3)cc1)C2 [Example 259, N-[[4-[(6-acetyl-2,6-diazaspiro[3.3]heptan-2-yl)sulfonyl]phenyl]methyl] imidazo[1,2-a]pyridine-6-carboxamide]
